Results reported in patent US4166911A, “Pyridazinyl-ergoline compounds having neuroleptic activity” (Farmitalia Carlo Erba S.p.A., priority 1977, dated 1979).

Test system: aggregated mice
Assay: not given
Details: result in words, literature; cited from earlier work

Compound	reduction of amphetamine toxicity in aggregated mice
CN(C)CCCN1c2ccccc2Sc2ccc(Cl)cc21 [chlorpromazine]	clearly reduce the amphetamine toxicity in aggregated mice

Test system: aggregated mice
Assay: protection of aggregated mice from amphetamine toxicity (death rate after 24 hours)
Details: Mus musculus, ip

Compound	ED50 [mg/kg]
COC12C[C@@H](CNc3ccc(Cl)nn3)CN(C)[C@@H]1Cc1cn(C)c3cccc2c13 (stereo partly drawn) [355/902, 10-Methoxy-8β-(6'-chloro-3'-pyridazinylaminomethyl)-1,6-dimethyl-ergoline]	16.4
COC12C[C@@H](CNc3cccnn3)CN(C)[C@@H]1Cc1cn(C)c3cccc2c13 (stereo partly drawn) [/904, 10-Methoxy-8β-(3'-pyridazinylaminomethyl)-1,6-dimethylergoline]	30
COc1ccc(NC[C@H]2CN(C)[C@@H]3Cc4cn(C)c5cccc(c45)C3(OC)C2)nn1 (stereo partly drawn) [/903, 10-Methoxy-8β-(6'-methoxy-3'-pyridazinylaminomethyl)-1,6-dimethylergoline]	30
COC12C[C@@H](CSc3ccc(O)nn3)CN(C)[C@@H]1Cc1cn(C)c3cccc2c13 (stereo partly drawn) [/914, 10-Methoxy-1,6-dimethyl-8β-(6'-hydroxy-3'-pyridazinylmercaptomethyl)ergoline]	16.7
COC12C[C@@H](CSc3cccnn3)CN(C)[C@@H]1Cc1cn(C)c3cccc2c13 (stereo partly drawn) [/927, 10-Methoxy-1,6-dimethyl-8β-(3'-pyridazinylmercaptomethyl)ergoline]	30
